According to patent US5210193A, “Piperazine derivatives” (American Cyanamid Company, priority 1990, dated 1993):
In brackets after ≈: the same amount, converted by molar mass. Where two headings read alike, the source gives them in different places.

What was measured:
Experiment in all cases: in vitro antibacterial MIC, agar plate dilution
Format in all cases: cell-based
[1] = tested on: Enterobacter aerogenes VGH 84-36; details: Klebsiella aerogenes, VGH8436, 18 hours, 35° C., read-out: MIC
Experimental: (§1) The in vitro antimicrobial spectrum of the compounds of ths invention were determined by the agar plate dilution method with Mueller-Hinton agar and an inoculum of each test organism of approximately 10^4 colony forming units delivered by the Steers replicating device. The minimal inhibitory concentration (MIC) in mcg/ml is defined as the lowest concentration of test compound that inhibited visible growth after 18 hours incubation at 35° C. Results are given in Table I, with the test compounds identified by the number of their hereinafter described examples.

[2] = tested on: Enterobacter cloacae K 84-10; details: Enterobacter cloacae, K8410, 18 h, 35° C., read-out: MIC
Experimental: as §1

[3] = tested on: Enterobacter cloacae VGH 84-37; details: Enterobacter cloacae, VGH8437, 18 h, 35° C., read-out: MIC
Experimental: as §1

[4] = tested on: Escherichia coli ATCC 25922; details: 35° C.
Experimental: as §1

[5] = tested on: Escherichia coli CMC 84-11; details: 35° C.
Experimental: as §1

[6] = tested on: Escherichia coli CMC 84-16; details: Escherichia coli, CMC8416, 18 h, 35° C., read-out: MIC
Experimental: as §1

[7] = tested on: Escherichia coli NAR 311; details: NAR311, 18 hours, 35° C., read-out: MIC
Experimental: as §1

[8] = tested on: Escherichia coli PRNT 311; details: PRNT311, 18 hours, 35° C., read-out: MIC
Experimental: as §1

[9] = tested on: Klebsiella oxytoca MOR 84-28; details: MOR8428, 18 hours, 35° C.
Experimental: as §1

[10] = tested on: Klebsiella pneumoniae AD; details: Klebsiella pneumoniae, 18 h, 35° C., read-out: MIC
Experimental: as §1

[11] = tested on: Klebsiella pneumoniae MOR 84-4; details: Klebsiella pneumoniae, MOR844, 18 h, 35° C., read-out: MIC
Experimental: as §1

[12] = tested on: Morganella morganii CMC 84-37; details: 35° C.
Experimental: as §1

[13] = tested on: Morganella morganii VGH 84-11; details: VGH8411, 18 hours, 35° C., read-out: MIC
Experimental: as §1

[14] = tested on: Proteus rettgeri CMC 84-41; details: Providencia rettgeri, CMC8441, 18 h, 35° C., read-out: MIC
Experimental: as §1

[15] = tested on: Pseudomonas aeruginosa LL-1244; details: 35° C.
Experimental: as §1

[16] = tested on: Pseudomonas aeruginosa VGH 84-4; details: 35° C.
Experimental: as §1

[17] = tested on: Serratia marcescens F 0-35; details: Serratia marcescens, F035, 18 h, 35° C., read-out: MIC
Experimental: as §1

[18] = tested on: Serratia marcescens K 84-18; details: 35° C.
Experimental: as §1

[19] = tested on: Staphylococcus Spp saprophiticus VGH 84-50; details: 18 hours, 35° C., read-out: MIC
Experimental: as §1

[20] = tested on: Staphylococcus aureus ATTC 29213; details: 35° C.
Experimental: as §1

[21] = tested on: Staphylococcus aureus CMC 83-127; details: Staphylococcus aureus, CMC83127, 18 h, 35° C., read-out: MIC
Experimental: as §1

[22] = tested on: Staphylococcus aureus CMC 83-128; details: CMC83128, 18 hours, 35° C., read-out: MIC
Experimental: as §1

[23] = tested on: Staphylococcus aureus Smith; details: 35° C.
Experimental: as §1

[24] = tested on: Staphylococcus aureus VGH 84-45; details: 35° C.
Experimental: as §1

[25] = tested on: Staphylococcus aureus VGH 84-46; details: Staphylococcus aureus, VGH8446, 18 h, 35° C., read-out: MIC
Experimental: as §1

[26] = tested on: Staphylococcus epidermidis CMC 83-135; details: CMC83135, 18 hours, 35° C., read-out: MIC
Experimental: as §1

[27] = tested on: Staphylococcus epidermidis IO 83-58; details: IO8358, 18 hours, 35° C., read-out: MIC
Experimental: as §1

[28] = tested on: Staphylococcus epidermidis VGH 84-40; details: VGH8440, 18 hours, 35° C., read-out: MIC
Experimental: as §1

[29] = tested on: Streptococcus faecalis ATTC 29212; details: Enterococcus faecalis, ATTC29212, 18 hours, 35° C., read-out: MIC
Experimental: as §1

[30] = tested on: Streptococcus faecalis VGH 84-65; details: 35° C.
Experimental: as §1

[31] = Escherichia coli, ATCC25922, 18 h, read-out: MIC
[32] = Escherichia coli, CMC8411, 18 h, read-out: MIC
[33] = Morganella morganii, CMC8437, 18 h, read-out: MIC
[34] = Pseudomonas aeruginosa, LL1244, 18 h, read-out: MIC
[35] = Pseudomonas aeruginosa, VGH844, 18 h, read-out: MIC
[36] = Serratia marcescens, K8418, 18 h, read-out: MIC
[37] = Staphylococcus aureus, ATTC29213, 18 h, read-out: MIC
[38] = Staphylococcus aureus, 18 h, read-out: MIC
[39] = Staphylococcus aureus, VGH8445, 18 h, read-out: MIC
[40] = Enterococcus faecalis, VGH8465, 18 h, read-out: MIC

Row | MIC [1] [µg/mL] | MIC [2] [µg/mL] | MIC [3] [µg/mL] | MIC [6] [µg/mL] | MIC [7] [µg/mL] | MIC [8] [µg/mL] | MIC [9] [µg/mL] | MIC [10] [µg/mL] | MIC [11] [µg/mL] | MIC [13] [µg/mL] | MIC [14] [µg/mL] | MIC [17] [µg/mL] | MIC [19] [µg/mL] | MIC [21] [µg/mL] | MIC [22] [µg/mL] | MIC [25] [µg/mL] | MIC [26] [µg/mL] | MIC [27] [µg/mL] | MIC [28] [µg/mL] | MIC [29] [µg/mL] | SMILES | also measured
1 | < 0.12 | < 0.12 | < 0.12 | < 0.12 | 0.25 (≈ 0.605 µM) | < 0.12 | < 0.12 | < 0.12 | < 0.12 | < 0.12 | < 0.12 | < 0.12 | < 0.12 | < 0.12 | < 0.12 | < 0.12 | < 0.12 | < 0.12 | < 0.12 | < 0.12 | O=C(O)c1cn(C2CC2)c2cc(N3CCNC(c4ccsc4)C3)c(F)cc2c1=O (stereo not drawn) [Example 60] | MIC ([4]; 18 hours): < 0.12 µg/mL; MIC ([5]; 18 hours): < 0.12 µg/mL; MIC ([12]; 18 hours): < 0.12 µg/mL; MIC ([15]; 18 hours): 4 µg/mL (≈ 9.67 µM); MIC ([16]; 18 hours): 0.5 µg/mL (≈ 1.21 µM); MIC ([18]; 18 hours): < 0.12 µg/mL; MIC ([20]; 18 hours): < 0.12 µg/mL; MIC ([23]; 18 hours): < 0.12 µg/mL; MIC ([24]; 18 hours): < 0.12 µg/mL; MIC ([30]; 18 hours): < 0.12 µg/mL
2 | > 256 | > 256 | > 256 | > 256 | > 256 | > 256 | > 256 | > 256 | > 256 | > 256 | > 256 | > 256 | > 256 | > 256 | > 256 | > 256 | > 256 | > 256 | > 256 | > 256 | CCCCCCCCCCCCOCC1CN(c2cc3c(cc2F)c(=O)c(C(=O)O)cn3CC)CCN1C (stereo not drawn) [Example 75, 7-[3-[(Dodecyloxy)methyl]-4-methyl-1-piperazinyl]-1-ethyl-6-fluoro-1,4-dihydro-4-oxo-3-quinolinecarboxylic acid] | MIC [4, 31]: > 256 µg/mL; MIC [5, 32]: > 256 µg/mL; MIC [12, 33]: > 256 µg/mL; MIC [15, 34]: > 256 µg/mL; MIC [16, 35]: > 256 µg/mL; MIC [18, 36]: > 256 µg/mL; MIC [20, 37]: > 256 µg/mL; MIC [23, 38]: > 256 µg/mL; MIC [24, 39]: > 256 µg/mL; MIC [30, 40]: > 256 µg/mL
3 | > 256 | > 256 | > 256 | > 256 | > 256 | > 256 | > 256 | > 256 | > 256 | > 256 | > 256 | > 256 | 64 (≈ 124 µM) | 32 (≈ 61.8 µM) | 128 (≈ 247 µM) | 128 (≈ 247 µM) | 128 (≈ 247 µM) | 128 (≈ 247 µM) | 64 (≈ 124 µM) | 128 (≈ 247 µM) | CCCCCCCCCCCCOCC1CN(c2cc3c(cc2F)c(=O)c(C(=O)O)cn3CC)CCN1 (stereo not drawn) [Example 74, 7-[3-[(Dodecyloxy)methyl]-1-piperazinyl]-1-ethyl-6-fluoro-1,4-dihydro-4-oxo-3-quinolinecarboxylic acid] | MIC [4, 31]: > 256 µg/mL; MIC [5, 32]: > 256 µg/mL; MIC [12, 33]: > 256 µg/mL; MIC [15, 34]: > 256 µg/mL; MIC [16, 35]: > 256 µg/mL; MIC [18, 36]: > 256 µg/mL; MIC [20, 37]: 128 µg/mL (≈ 247 µM); MIC [23, 38]: 128 µg/mL (≈ 247 µM); MIC [24, 39]: 128 µg/mL (≈ 247 µM); MIC [30, 40]: 128 µg/mL (≈ 247 µM)
